Results: US20260185979A1, “APPARATUSES AND METHODS FOR ANALYZING LIVE CELLS” (AGILENT TECHNOLOGIES, INC., priority 2022, published 2026)
“Also recorded” adds a separate entry of the source.

Columns and labels:
A431 cells [1] = experiment: A431 cell proliferation, normalized cell index over time; type: cell-based, human
Method: (§1) Briefly, matrigel (6 mg/ml) was layered (50 μL/ell) over A431-red target tumor cells expressing nuclear-localized mKate2 (red fluorescent protein). After 2 h, epithelial cell adhesion molecule (EpCAM)-CAR-T cells were seeded over the matrigel layer. Tumor cell growth and CAR-T cytotoxicity were determined from real-time impedance and live cell imaging data collected on the XCELLIGENCE RTCA ESIGHT® imaging and sensing system. Pemigatinib (1 μM, 5 μM and 10 μM), an inhibitor of FGFR isoforms 1-3, sold under the brand name Pemazyre was used to evaluate the role of FGFR signaling. Percent cytolysis was calculated from normalized cell impedance and imaging (red fluorescence) data using the formula [(1−(treated/control)*100].
(§2) The ability of EpCAM-CAR-T cells to invade the matrigel and kill A431-red target cells was evaluated using impedance and imaging readouts on an XCELLIGENCE RTCA ESIGHT® imaging and sensing system. The background impedance signal was measured with 50 μL of c-DMEM media in the wells of E-plate VIEW microplate (Agilent Technologies, Cat#0030060101030). Cell suspension of A 431-red cells was prepared in c-DMEM at desired cell numbers to be aliquot at 100 μL/well. […] Impedance was read every 15 minutes and images were taken every 60 minutes. Images from four fields of view were acquired for each well in brightfield and red fluorescence channel. […]

A431 cells [2] = experiment: EpCAM-CAR-T cytotoxicity assay, A431 cells cultured in DMEM media (no matrigel); type: cell-based, human; details: Pemigatinib 5 μM and 10 μM, E:T 3.5, DMEM media
Method: as §1, with “[…] […]” for “Briefly, matrigel (6 mg/ml) was layered (50 μL/ell) over A431-red target tumor cells expressing nuclear-localized mKate2 (red fluorescent protein). After 2 h, epithelial cell adhesion molecule (EpCAM)-CAR-T cells were seeded over the matrigel layer.”
[…] The background impedance signal was measured with 50 μL of c-DMEM media in the wells of E-plate VIEW microplate (Agilent Technologies, Cat#0030060101030). […] Impedance was read every 15 minutes and images were taken every 60 minutes. Images from four fields of view were acquired for each well in brightfield and red fluorescence channel. […]
(§3) The software generates a real-time plot of impedance data with time (X-axis) and Cell Index (CI, Y-axis). […] Normalized Cell Index (NCI(t)) was calculated by dividing the CI at time t (CI(t)) with CI at normalization time point (CI(tnormalization)). […] Percent cytolysis was calculated from NCI (impedance) using the formula [(1−(CAR-T treated/Pemigatinib treated)*100]. Percent cytolysis was calculated from red object counts/well (imaging) using the formula [(1−(CAR-T treated/Pemigatinib treated)*100].

A431-red target cells = experiment: ECM invasion and cytotoxicity assay: EpCAM-CAR-T cells over matrigel layered on A431-red cells (impedance and imaging); type: cell-based, human; details: for percent cytolysis (CAR-T killing): matrigel
Method: as §1
as §2, with “μL/well. After the addition of tumor cells, the E-plate was allowed to rest at room temperature for 30 min to facilitate an even distribution at the bottom.” for “μL/well.”
as §3

NK-92 invasion = details: transmigration assays; cited from earlier work
MCF-7-red target cells = experiment: ECM invasion and cytotoxicity assay: NK-92 cells over matrigel layered on MCF-7-red cells (impedance and live cell imaging, xCELLigence RTCA eSight); type: cell-based, human; details: for killing of target cells by NK-92 (drop in impedance): MMP inhibitor 2 μM and 10 μM in matrigel and media
Method: An exemplary protocol is described as follows. Briefly, varying volumes of matrigel (50-110 microliters (μL)/well; 6 milligrams (mg)/millilter (mL)) representing increasing distance for invasion is layered over MCF-7 (available from American Type Culture Collection (ATCC)) human breast adenocarcinoma cells stably expressing nuclear-localized red fluorescent protein (MCF-7). NK-92 cells (available from Creative Bioarray, ATCC) are added over the solidified matrigel layer at E:T of 3:1. eLive Green (available from Agilent Technologies, shown in green) is added at 1 μL/mL. A broad spectrum MMP inhibitor (such as GM6001, available from Selleck Chemicals) is used to evaluate the role of matrix metalloproteinases (MMPs).
The ability of NK-92 cells to invade the matrigel and kill the MCF-7-red target cells was evaluated by concurrent impedance and imaging readouts on an XCELLIGENCE RTCA ESIGHT® imaging and sensing system (available from Agilent Tech., Inc.). Background impedance signal was measured with 50 μL of EMEM media in the wells of E-plate VIEW microplate (available from Agilent Technologies, Cat#0030060101030). MCF-7-red target cells (30,000 in 100 μL) were added to each well. The plate was placed at room temperature for thiry minutes to facilitate an even distribution of cells at the bottom. […] Impedance readings were collected every fifteen minutes, and photos were taken every sixty minutes. Images from four fields of view were acquired in each well in brightfield, red, and green fluorescence channels. […] Percent cytolysis was calculated from normalized cell impedance readings at seventy-two hours using the formula: [(1−(treated/untreated)*100]. […]
The ability of NK-92 cells to invade the matrigel and kill the MCF7-red target cells was evaluated by concurrent impedance and imaging readouts on an XCELLIGENCE RTCA ESIGHT® imaging and sensing system as outlined in FIG. 6A. Background impedance signal was measured with 50 μL of EMEM media in the wells of E-plate VIEW microplate. […]

For CCN1C(=O)N(c2c(F)c(OC)cc(OC)c2F)Cc2cnc3[nH]c(CN4CCOCC4)cc3c21 [Pemigatinib], the “proliferation of A431 cells (normalized cell index)” value (A431 cells [1]; in the presence of matrigel, 1, 5 and 10 μM tested) was “reduces the proliferation of A431 cells in the presence of matrigel in a concentration-dependent manner; also recorded: reduced the proliferation of A431 cells with increasing concentrations tested”, the “proliferation of A431 cells (normalized cell index)” value (A431 cells [1]; native DMEM media, no matrigel) was “slows the proliferation of A431 cells in native DMEM media in a concentration dependent manner” and the “A431 cytolysis by EpCAM-CAR-T cells in the presence of Pemigatinib” value (A431 cells [2]) was “accelerated”. The “percent cytolysis (CAR-T killing)” value (A431-red target cells; 5 μM Pemigatinib with EpCAM-CAR-T) was ~20%, the “percent cytolysis (CAR-T killing)” value (A431-red target cells; 10 μM Pemigatinib with EpCAM-CAR-T) was −40% and the “elimination of A431 cells in invasion assays” value (A431-red target cells; E:T=20:1 and 1 μM Pemigatinib) was “Complete elimination”.
For CNC(=O)[C@H](Cc1c[nH]c2ccccc12)NC(=O)[C@@H](CC(=O)NO)CC(C)C [GM6001, Ilomostat], the “NK-92 invasion in matrigel in the presence of MMP inhibitor” value (NK-92 invasion) is given as “reduced”, the “target cell killing by GFP-NK92 cells (percent cytolysis from normalized impedance and red fluorescence imaging)” value (MCF-7-red target cells; 2 μM and 10 μM) is given as “delayed and reduced target cell killing” and the “killing of target cells by NK-92 (drop in impedance)” value (MCF-7-red target cells) is given as “delayed but not abrogated”. The “killing of target cells by NK-92 (drop in impedance)” value (MCF-7-red target cells; listed as Ilomostat) was “delayed the killing of target cells”.
